Active and inactive are the calls of the source. The calls are words filed in the database; no cut-off is given here.
Assays:
Type in all cases: functional, cell-based
HT-29 = assay: Cytotoxicity against human HT-29 cells at 2.6 uM after 4 days by MTT assay
HCT-116 [1] = assay: Cytotoxicity against human HCT116 cells at 0.38 uM after 4 days by MTT assay
HCT-116 [2] = assay: Cytotoxicity against human HCT116 cells after 4 days by MTT assay; conditions: HCT-116, 96 h

Q: What does the source list for `C=C1CC[C@@]2(OC1)O[C@H]1C[C@H]3[C@@H]4CC[C@H]5C[C@@H](O[C@@H]6O[C@H](CO)[C@H](O[C@@H]7O[C@H](CO)[C@@H](O)[C@H](O[C@@H]8OC[C@@H](O)[C@H](O)[C@H]8O)[C@H]7O[C@@H]7O[C@H](CO)[C@@H](O)[C@H](O)[C@H]7O)[C@H](O)[C@H]6O)[C@H](O)C[C@]5(C)[C@H]4CC[C@]3(C)[C@H]1[C@@H]2C`?
A: Activity (HT-29): Active; Activity (HCT-116 [1]): Active

Q: With `CC(=O)O[C@H]1C(=O)[C@@]2(C)[C@H]([C@H](OC(=O)c3ccccc3)[C@]3(O)C[C@H](OC(=O)[C@H](O)[C@@H](NC(=O)c4ccccc4)c4ccccc4)C(C)=C1C3(C)C)[C@]1(OC(C)=O)CO[C@@H]1C[C@@H]2O` [PACLITAXEL] as the molecule, how does the IC50 (HCT-116 [2]) read?
A: The IC50 was 1.1 nM.
